How the values were obtained:
IP receptor = biological target: T1, IP receptor (Homo sapiens, UniProt P43119); test: Iloprost-induced cAMP production assay in HEL cells (Assay 2); type: cell-based; details: IP receptor antagonist assay, compounds of about 40 to 90% purity, read-out: Activity grade assay 2
T1 construct: HEL cells were collected with centrifugation and washed with cAMP assay buffer; endogenous in cells; host or cells: HEL 92.1.7 (human erythroleukemia, ATCC)
Procedure: [Iloprost-Induced cAMP Production Assay in HEL Cells] (Assay 2)
HEL cells were collected with centrifugation and washed with cAMP assay buffer (CAB: Hank's balanced salt solution, 17 mM Hepes, 0.1% bovine serum albumin, 1 mM IBMX, 0.4% DMSO, and 1 mM L-ascorbic acid sodium salt (pH 7.4)). Cells were suspended at the density of 2.5×10^5 cells/ml in CAB, and twenty thousand cells in 80 μl aliquot of cell suspension were put in a well of 96 well plate (Falcon). Then, 10 μl of compound solution diluted with 1% DMSO in CAB or buffer alone was added. The plate was incubated at 37° C. for 30 min. Then, another 10 μl containing 100 nM iloprost in CAB or buffer alone was added and further incubated at 37° C. for 30 min. cAMP content in the well was measured by a cAMP ELISA kit (Applied Biosystems).

T1 sequence (P43119 whole entry): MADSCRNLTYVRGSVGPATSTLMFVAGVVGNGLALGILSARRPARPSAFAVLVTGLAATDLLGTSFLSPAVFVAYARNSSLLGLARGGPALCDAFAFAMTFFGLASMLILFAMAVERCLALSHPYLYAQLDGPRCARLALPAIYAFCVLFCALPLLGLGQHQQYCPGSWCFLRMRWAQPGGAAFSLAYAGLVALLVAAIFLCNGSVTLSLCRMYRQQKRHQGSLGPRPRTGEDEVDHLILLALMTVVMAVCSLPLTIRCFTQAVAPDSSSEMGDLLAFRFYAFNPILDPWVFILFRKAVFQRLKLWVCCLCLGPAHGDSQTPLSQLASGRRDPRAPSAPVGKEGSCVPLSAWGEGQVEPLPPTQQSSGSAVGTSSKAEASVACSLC

With `O=C(C#Cc1ccc(COc2ccccc2)cc1)N[C@@H](Cc1ccccc1)C(=O)O` [Example 3, N-(4-Phenoxymethylphenylpropioloyl)phenylalanine] as the compound, how does the IC50 (IP receptor) read?
The IC50 was < 100 nM.

And the melting point?
The melting point was 146 °C.

Which results are given for `O=C(/C=C/c1ccc(COc2ccccc2)cc1)NC(Cc1ccccc1)C(=O)O` (centres unmarked) [Example 1, N-(4-phenoxymethylcinnamoyl)phenylalanine]?
IC50 (IP receptor): < 100 nM; melting point: 205 °C

What does the source list for `O=C(CCc1ccc(COc2ccccc2)cc1)N[C@@H](Cc1ccccc1)C(=O)O` [Example 2, N-[3-(4-Phenoxymethylphenyl)propionyl]phenylalanine]?
IC50 (IP receptor): < 100 nM; melting point: 173 to 174 °C

What does the source list for `O=C(/C=C/c1ccc(OCc2ccccc2)cc1)NC(Cc1ccccc1)C(=O)O` (centres unmarked) [Example 4, N-(4-Benzyloxycinnamoyl)phenylalanine]?
IC50 (IP receptor): < 100 nM; melting point: 220 °C
